# Experimental data as given in paper PMC4764201, “High Throughput Screen for Escherichia coli Twin Arginine Translocation (Tat) Inhibitors” (PLoS ONE, 2016).
# Tests used:
# [1] = tested on: electrical field gradient (Δψ) across IMVs; test: Δψ assay (oxonol VI fluorescence with IMVs); assay type: biochemical, Escherichia coli; settings: for IC50: electrical field gradient, IMVs A280 = 0.5, NADH
# Method: Hit compounds surviving the in vitro Tat transport assay screens could be general Δψ inhibitors (ionophores), as both NADH and ATP generate the Δψ necessary for Tat transport. Since our current assay to measure Δψ requires ~20 times more test compound than the Tat transport assays, we reserved this assay for last. The presence of a Δψ was determined by measuring oxonol VI fluorescence. For all 8 hit compounds that survived initial secondary screening, we tested their dose dependent effect on the Δψ, on NADH-dependent in vitro Tat transport efficiency, and on the fluorescence signal recovered from our primary HTS assay (live cell assay). […] Out of 22 independent assays by three different people, compound 18^NIH inhibited Tat transport 12 times. The conflicting results seem more likely to arise from differences in IMV preparations rather than decomposition of or impurities in the samples of compound 18^NIH.
# Isolation of inverted membrane vesicles (IMVs), Western blot analyses and purification of pre-SufI-IAC were performed as described previously. Western blots were performed using rabbit anti-mCherry antibodies (1:10,000 dilution) in the presence of 0.1% Triton X-100 and 0.1% Tween 20. The pre-SufI-IAC protein was labeled with Atto565 maleimide, and the resultant fluorescent protein, pre-SufI-IAC^Atto565, was used as a substrate for the in vitro Tat transport assays (A280 = 5.0), as described previously. The presence of a Δψ was determined by measuring oxonol VI fluorescence in presence of Tat^+ IMVs (A280 = 0.5), as described previously, except that the translocation buffer lacked BSA. Steady-state fluorescence spectra and fluorescence intensities of whole cells producing mCherry proteins were determined with an SLM-8100 spectrofluorometer.
# Supplementary file pone.0149659.s003.tiff: S3 Fig IC50's for Hit Compound 181^JS. (A) The total cellular mCherry fluorescence (live cell assay; n = 1), (B) the in vitro NADH-dependent Tat transport efficiency of pre-SufI (n = 1), and (C) the maximum transmembrane electrical potential gradient (n = 1) were measured for a range of concentrations of compound 181^JS (S2E Fig). (D) SDS-PAGE gel showing in-gel fluorescence data used in (B). For (A), cells expressing spTorA-mCherry-SsrA were grown under Tat^++ conditions in a 384-well plate in the presence of 0, 0.08, 0.15, 0.3, 0.63, 1.25, 2.5, 5, 10, 20, or 40 μM compound 181^JS, as described for the HTS assay (see Methods). For (B) and (C), IMVs were incubated with the same concentrations of compound 181^JS prior to initiation of Tat transport and Δψ generation by the addition of NADH, as described previously. The red curves are best-fits using y = d + (100-d)/(1+(x/IC50)^b), where b is a slope factor and d is the high concentration asymptote. (TIFF) Click here for additional data file.
# [2] = tested on: Pseudomonas aeruginosa Tat machinery; set-up: method as in PMID 23006747; settings: cited from earlier work
SMILES,IC50 [1] [nM],activity on the Pseudomonas aeruginosa Tat machinery [2],effect on the Δψ across IMVs [1]
"N#CC1c2ccccc2-n2nncc2CN1Cc1cc(Cl)cc(Cl)c1 (centres unmarked) [21^NIH, 5-[(3,5-dichlorophenyl)methyl]-4,6-dihydrotriazolo[1,5-a][1, 4]benzodiazepine-6-carbonitrile]",4000,–,–
Cc1ccc(S(=O)(=O)/C=C/C#N)cc1 [Bay 11–7082],–,identified as inhibitors,–
"N#CC(C#N)=NNc1ccccc1Br [Compound 1, [(2-bromophenyl)hydrazono]malononitrile]",1000,–,–
"Oc1cc(Cl)ccc1Oc1ccc(Cl)cc1Cl [Compound 18^NIH, 5-Chloro-2-(2,4-dichlorophenoxy)phenol]",> 100000,–,did not collapse the Δψ
"O=[N+]([O-])c1cc([N+](=O)[O-])c2ccccc2c1Cl [Compound 51, 1-chloro-2,4-dinitronaphthalene]",8000,–,–
"Fc1nc(F)c(F)c(NNC(=S)Nc2cccc(C(F)(F)F)c2)c1F [Compound 111, 1-[(2,3,5,6-tetrafluoropyridin-4-yl)amino]-3-[(3-trifluoromethyl)phenyl]thiourea]",100,–,–
"FC(F)(F)c1cccc(-c2cccc3cnccc23)c1 [Compound 140, 5-[3-(trifluoromethyl)phenyl]isoquinoline]",1000,–,–
"O=C(Nc1cccc(C(F)(F)F)c1)Nc1ncc([N+](=O)[O-])s1 [Compound 181^JS, 1-(5-nitro-1,3-thiazol-2-yl)-3-[3-(trifluoromethyl)phenyl]urea]",400,–,–
"O=[N+]([O-])c1ccc(O)c(-c2cccs2)c1 [Compound 202, 4-nitro-2-thiophen-2-ylphenol]",3000,–,–
O=C1C=CC(=O)N1c1ccccc1 [N-phenylmaleimide],–,identified as inhibitors,–
